Experimental findings from US20170291905A1, “ARGININE […] INHIBITORS AND USES THEREOF” (Epizyme, Inc., priority 2014, published 2017) are described below.

Structures can show the parent of a compound that is named as a salt. Some results are limits rather than exact numbers.

T1 sequence (Q99873 whole entry): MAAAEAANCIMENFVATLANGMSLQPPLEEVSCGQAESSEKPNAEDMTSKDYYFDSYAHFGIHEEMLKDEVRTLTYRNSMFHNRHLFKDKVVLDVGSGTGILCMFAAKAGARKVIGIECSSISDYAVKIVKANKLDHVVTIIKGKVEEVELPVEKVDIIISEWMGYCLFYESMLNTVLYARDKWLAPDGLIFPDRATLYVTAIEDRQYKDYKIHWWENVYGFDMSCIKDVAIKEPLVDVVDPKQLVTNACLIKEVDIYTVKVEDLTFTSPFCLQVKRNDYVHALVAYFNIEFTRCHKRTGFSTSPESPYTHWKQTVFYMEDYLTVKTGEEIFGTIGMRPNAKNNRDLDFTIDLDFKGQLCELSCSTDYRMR

The assay addresses T1, PRMT1 (Homo sapiens, UniProt Q99873).
T1 construct: host or cells: RKO cells
The assay can be described thus: RKO methylation assay, In Cell Western (ICW) for mono-methyl arginine and DNA content. The class given is cell-based. As to conditions: RKO cells, 72 hours, mono-methyl arginine signal normalised to DRAQ5, percent activation. The text has this: RKO Methylation Assay RKO adherent cells were purchased from ATCC (American Type Culture Collection), Manassas, Va., USA. DMEM/Glutamax medium, penicillin-streptomycin, heat inactivated fetal bovine serum, 0.05% trypsin and D-PBS were purchased from Life Technologies, Grand Island, N.Y., USA. Odyssey blocking buffer, 800CW goat anti-rabbit IgG (H+L) antibody, and Licor Odyssey infrared scanner were purchased from Licor Biosciences, Lincoln, Nebr., USA. Mono-methyl arginine antibody was purchased from Cell Signaling Technology, Danvers, Mass., USA. Methanol was purchased from VWR, Franklin, Mass., USA. 10% Tween 20 was purchased from KPL, Inc., Gaithersburg, Md., USA. DRAQ5 was purchased from Biostatus Limited, Leicestershire, UK. RKO adherent cells were maintained in growth medium (DMEM/Glutamax medium supplemented with 10% v/v heat inactivated fetal bovine serum and 100 units/mL penicillin-streptomycin) and cultured at 37° C. under 5% CO2. Cell Treatment, in Cell Western (ICW) for Detection of Mono-Methyl Arginine and DNA Content. RKO cells were seeded in assay medium at a concentration of 20,000 cells per mL to a poly-D-lysine coated 384 well culture plate (BD Biosciences 356697) with 50 μL per well. Compound (100 nL) from a 96-well source plate was added directly to 384 well cell plate. Plates were incubated at 37° C., 5% CO2 for 72 hours. After three days of incubation, plates were brought to room temperature outside of the incubator for ten minutes and blotted on paper towels to remove cell media. 50 μL of ice cold 100% methanol was added directly to each well and incubated for 30 min at room temperature. After 30 min, plates were transferred to a Biotek EL406 plate washer and washed 2 times with 100 μL per well of wash buffer (1×PBS). Next 60 μL per well of Odyssey blocking buffer (Odyssey Buffer with 0.1% Tween 20 (v/v)) were added to each plate and incubated 1 hour at room temperature. Blocking buffer was removed and 20 μL per well of primary antibody was added (mono-methyl arginine diluted 1:200 in Odyssey buffer with 0.1% Tween 20 (v/v)) and plates were incubated overnight (16 hours) at 4° C. Plates were washed 5 times with 100 μL per well of wash buffer. Next 20 μL per well of secondary antibody was added (1:200 800CW goat anti-rabbit IgG (H+L) antibody, 1:1000 DRAQ5 (Biostatus limited) in Odyssey buffer with 0.1% Tween 20 (v/v)) and incubated for 1 hour at room temperature. The plates were washed 5 times with 100 μL per well wash buffer then 2 times with 100 μL per well of water. Plates were allowed to dry at room temperature then imaged on the Licor Odyssey machine which measures integrated intensity at 700 nm and 800 nm wavelengths. Both 700 and 800 channels were scanned. […] Each plate included fourteen control wells of DMSO only treatment (minimum activation) as well as fourteen control wells for maximum activation treated with 20 μM of a reference compound. The average of the ratio values for each control type was calculated and used to determine the percent activation for each test well in the plate. Reference compound was serially diluted three-fold in DMSO for a total of nine test concentrations, beginning at 20 μM. Percent activation was determined and EC30 curves were generated using triplicate wells per concentration of compound.
For the compound `CNCCN(C)Cc1c[nH]nc1C1CCC(OCCCOC)C2(CCCC2)C1` (mixture of isomers) [compound 19, N1-((3-(10-(3-methoxypropoxy)spiro[4.5]decan-7-yl)-1H-pyrazol-4-yl)methyl)-N1,N2-dimethylethane-1,2-diamine dihydrochloride], the “PRMT1 RGG ICW EC30” value stood at 440.3 nM. Regarding `CNCCN(C)Cc1c[nH]nc1[C@@H]1CC[C@@H](OCCCOC)C2(CCCC2)C1` (racemic) [compound 26, N1-((3-((7R,10R)-10-(3-methoxypropoxy)spiro[4.5]decan-7-yl)-1H-pyrazol-4-yl)methyl)-N1,N2-dimethylethane-1,2-diamine], the “PRMT1 RGG ICW EC30” value was 217.2 nM. With `CNCCN(C)Cc1c[nH]nc1[C@@H]1CC[C@H](OCCCOC)C2(CCCC2)C1` (racemic) [compound 27, N1-((3-((7R,10S)-10-(3-methoxypropoxy)spiro[4.5]decan-7-yl)-1H-pyrazol-4-yl)methyl)-N1,N2-dimethylethane-1,2-diamine], the “PRMT1 RGG ICW EC30” value was 216.4 nM. On to `CNCCN(C)Cc1c[nH]nc1C1CC(COCC2CC2)CC(COCC2CC2)C1` (centres unmarked) [compound 2], for which the “PRMT1 RGG ICW EC30” value was more than 5000 nM.

Regarding `CNCCN(C)Cc1c[nH]nc1[C@H]1CC[C@@]2(CCCCO2)CC1` [compound 3], the “PRMT1 RGG ICW EC30” value was 114.7 nM.

For `CNCCN(C)Cc1c[nH]nc1[C@H]1CC[C@]2(CCCOC2)CC1` [compound 4, N1-((3-((6s,9s)-2-oxaspiro[5.5]undecan-9-yl)-1H-pyrazol-4-yl)methyl)-N1,N2-dimethylethane-1,2-diamine], the “PRMT1 RGG ICW EC30” value amounted to 18.34 nM. Consider `CNCCN(C)Cc1c[nH]nc1[C@H]1CC[C@@]2(CCCOC2)CC1` [compound 5, N1-((3-((6r,9r)-2-oxaspiro[5.5]undecan-9-yl)-1H-pyrazol-4-yl)methyl)-N1,N2-dimethylethane-1,2-diamine], for which the “PRMT1 RGG ICW EC30” value was determined as 14.65 nM. On to `CNCCN(C)Cc1c[nH]nc1C1CCC(COCC(C)C)(COCC(C)C)CC1` [compound 6], for which the “PRMT1 RGG ICW EC30” value stood at 949.3 nM. Consider `CNCCN(C)Cc1c[nH]nc1C1CCC2(CCC(OC)CC2)CC1` (centres unmarked) [compound 9, N1-((3-(9-methoxyspiro[5.5]undecan-3-yl)-1H-pyrazol-4-yl)methyl)-N1,N2-dimethylethane-1,2-diamine], for which the “PRMT1 RGG ICW EC30” value amounted to 12.45 nM. With `CNCCN(C)Cc1c[nH]nc1[C@H]1CC[C@]2(CCN(CCC(C)C)C2=O)CC1` [compound 10] the figure was 2001 nM; with `CNCCN(C)Cc1c[nH]nc1[C@H]1CC[C@@]2(CCN(CCC(C)C)C2=O)CC1` [compound 11, (5r,8r)-2-isopentyl-8-(4-((methyl(2-(methylamino)ethyl)amino)methyl)-1H-pyrazol-3-yl)-2-azaspiro[4.5]decan-1-one], 34.17 nM. Next, `CNCCN(C)Cc1c[nH]nc1C1C[C@@H](C(=O)N(C)CC(C)C)C(C)(C)[C@H](C(=O)N(C)CC(C)C)C1` (some centres unmarked) [compound 12]: more than 5000 nM; `CNCCN(C)Cc1c[nH]nc1C1C[C@H](C(=O)NCCOC)C(C)(C)[C@H](C(=O)NCCOC)C1` (some centres unmarked) [compound 13]: more than 5000 nM.

`CCN(C)C(=O)C1CC(c2n[nH]cc2CN(C)CCNC)CC(C(=O)NCCC(C)C)C1(C)C` (centres unmarked) [compound 14, N1-ethyl-N3-isopentyl-N1,2,2-trimethyl-5-(4-((methyl(2-(methylamino)ethyl)amino)methyl)-1H-pyrazol-3-yl)cyclohexane-1,3-dicarboxamide]: the “PRMT1 RGG ICW EC30” value was more than 5000 nM. With `CNCCN(C)Cc1c[nH]nc1C1=CCC(CF)(CF)CC1` [compound 15, N-((3-(4,4-bis(fluoromethyl)cyclohex-1-en-1-yl)-1H-pyrazol-4-yl)methyl)-N1,N2-dimethylethane-1,2-diamine] the figure was 361.1 nM; with `CNCCN(C)Cc1c[nH]nc1C1=CCC(COCC(F)(F)F)CC1` (centres unmarked) [compound 16, N1,N2-dimethyl-N1-((3-(4-((2,2,2-trifluoroethoxy)methyl)cyclohex-1-en-1-yl)-1H-pyrazol-4-yl)methyl)ethane-1,2-diamine], 839.3 nM; with `CNCCN(C)Cc1c[nH]nc1C1CCC(C)(C)[C@H](OCC(C)C)C1` (stereo partly drawn) [compound 20, ({3-[(3R)-4,4-dimethyl-3-(2-methylpropoxy)cyclohexyl]-1H-pyrazol-4-yl}methyl)(methyl)[2-(methylamino)ethyl]amine], 204.3 nM. Next, `CCC1CC(c2n[nH]cc2CN(C)CCNC)CC(C(=O)NCCOC)C1(C)C` (centres unmarked) [compound 21, 3-ethyl-N-(2-methoxyethyl)-2,2-dimethyl-5-[4-([methyl[2-(methylamino)ethyl]amino]methyl)-1H-pyrazol-3-yl]cyclohexane-1-carboxamide dihydrochloride]: more than 5000 nM; `CCC1(CC)CC2(CCC(c3n[nH]cc3CN(C)CCNC)CC2)N(C)C1=O` (centres unmarked) [compound 22, 3,3-diethyl-1-methyl-8-(4-((methyl(2-(methylamino)ethyl)amino)methyl)-1H-pyrazol-3-yl)-1-azaspiro[4.5]decan-2-one]: 1835 nM. As for `CNCCN(C)Cc1c[nH]nc1[C@H]1CC[C@@H](COCC(F)(F)F)CC1` [compound 23, N1,N2-dimethyl-N1-((3-((1s,4s)-4-((2,2,2-trifluoroethoxy)methyl)cyclohexyl)-1H-pyrazol-4-yl)methyl)ethane-1,2-diamine], the “PRMT1 RGG ICW EC30” value was found to be 1721 nM. On to `CNCCN(C)Cc1c[nH]nc1[C@H]1CC[C@H](COCC(F)(F)F)CC1` [compound 24, N1,N2-dimethyl-N1-((3-((1r,4r)-4-((2,2,2-trifluoroethoxy)methyl)cyclohexyl)-1H-pyrazol-4-yl)methyl)ethane-1,2-diamine], for which the “PRMT1 RGG ICW EC30” value came to 161.6 nM.

As to `CNCCN(C)Cc1cn(C)nc1C1CCC(C)(C)[C@@H](C(=O)NCC(C)C)C1` (some centres unmarked) [compound 25], the “PRMT1 RGG ICW EC30” value is more than 5000 nM. With `CNCCN(C)Cc1c[nH]nc1C1CCC(C)(C)[C@H](COCCCOC)C1` (stereo partly drawn) [compound 30, {2-[({3-[(3R)-3-[(3-methoxypropoxy)methyl]-4,4-dimethylcyclohexyl]-1H-pyrazol-4-yl}methyl)(methyl)amino]ethyl}(methyl)amine] the figure was 209 nM; with `CCOC[C@@H]1CC(c2n[nH]cc2CN(C)CCNC)CCC1(C)C` (stereo partly drawn) [compound 31, {2-[({3-[(3R)-3-(ethoxymethyl)-4,4-dimethylcyclohexyl]-1H-pyrazol-4-yl}methyl)(methyl)amino]ethyl}(methyl)amine], 453.6 nM. Next, `CNCCN(C)Cc1c[nH]nc1C1CCC(C)(C)[C@H](CO)C1` (stereo partly drawn) [compound 32, [(1R)-2,2-dimethyl-5-[4-({methyl[2-(methylamino)ethyl]amino}methyl)-1H-pyrazol-3-yl]cyclohexyl]methanol]: 517.9 nM; `CCC1(CC)C[C@]2(CC[C@H](c3n[nH]cc3CN(C)CCNC)CC2)OC1=O` [compound 33, (5s,8s)-3,3-diethyl-8-(4-((methyl(2-(methylamino)ethyl)amino)methyl)-1H-pyrazol-3-yl)-1-oxaspiro[4.5]decan-2-one]: 40.81 nM. Next, `CCC1(CC)C[C@]2(CC[C@@H](c3n[nH]cc3CN(C)CCNC)CC2)OC1=O` [compound 34, (5r,8r)-3,3-diethyl-8-(4-((methyl(2-(methylamino)ethyl)amino)methyl)-1H-pyrazol-3-yl)-1-oxaspiro[4.5]decan-2-one]: 65.46 nM; `CNCCN(C)Cc1c[nH]nc1C1CCC(C)(C)[C@H](COCCOC)C1` (stereo partly drawn) [compound 35, {2-[({3-[(3R)-3-[(2-methoxyethoxy)methyl]-4,4-dimethylcyclohexyl]-1H-pyrazol-4-yl}methyl)(methyl)amino]ethyl}(methyl)amine]: 330.1 nM.

On to `CCCOCC1(COCCC)CCC(c2n[nH]cc2CN(C)CCNC)CC1` [compound 36, N^1-((3-(4,4-bis(propoxymethyl)cyclohexyl)-1H-pyrazol-4-yl)methyl)-N^1,N^2-dimethylethane-1,2-diamine], for which the “PRMT1 RGG ICW EC30” value stood at 66.17 nM.
